From the NIST ThermoML archive (doi:10.1021/acs.jced.8b00202)
Where “and” joins values, the source holds several entries; their conditions need not be identical. Equal values may be shown once. ± gives the expanded uncertainty stated by the source.

Conditions: Liquid, Frequency=8 MHz, Dual path-length method

CC(C)C [2-methylpropane]
Conditions | speed of sound
300 K, 50138 kPa | 1240.1 ± 0.09 m/s
300 K, 60144 kPa | 1297.7 ± 0.1 m/s
300 K, 70151 kPa | 1350.8 ± 0.1 m/s
300 K, 80158 kPa | 1400.3 ± 0.11 m/s
300 K, 90165 kPa | 1446.7 ± 0.11 m/s
300 K, 100172 kPa | 1490.4 ± 0.12 m/s
300.01 K, 2103.9 kPa | 831.02 ± 0.076 m/s
319.99 K, 40132 kPa | 1106.5 ± 0.08 m/s
319.99 K, 45135 kPa | 1140.9 ± 0.08 m/s
320 K, 1103.3 kPa | 702.16 ± 0.078 m/s
320 K, 1103.7 kPa | 702.18 ± 0.078 m/s
320 K, 1105.9 kPa | 702.16 ± 0.078 m/s
320 K, 2106.5 kPa | 719.58 ± 0.076 m/s
320 K, 3107.1 kPa | 736.11 ± 0.075 m/s
320 K, 5106.2 kPa | 766.91 ± 0.073 m/s
320 K, 5106.5 kPa | 766.92 ± 0.073 m/s
320 K, 5108.3 kPa | 766.9 ± 0.073 m/s
320 K, 6108.3 kPa | 781.34 ± 0.073 m/s
320 K, 7109 kPa | 795.23 ± 0.072 m/s
320 K, 8109.8 kPa | 808.64 ± 0.072 m/s
320 K, 9110.4 kPa | 821.6 ± 0.072 m/s
320 K, 10109 kPa | 834.15 ± 0.072 m/s
320 K, 10110 kPa | 834.16 ± 0.072 m/s and 834.15 ± 0.072 m/s
320 K, 15114 kPa | 891.73 ± 0.072 m/s
320 K, 17616 kPa | 917.89 ± 0.072 m/s
320 K, 20118 kPa | 942.65 ± 0.073 m/s
320 K, 25121 kPa | 988.67 ± 0.075 m/s
320 K, 30123 kPa | 1030.8 ± 0.08 m/s
320 K, 30124 kPa | 1030.9 ± 0.08 m/s
320 K, 35128 kPa | 1070 ± 0.08 m/s
320 K, 50136 kPa | 1173.5 ± 0.09 m/s
320 K, 50139 kPa | 1173.5 ± 0.09 m/s
320 K, 60146 kPa | 1234 ± 0.09 m/s
320 K, 70153 kPa | 1289.5 ± 0.1 m/s
320 K, 80160 kPa | 1340.8 ± 0.1 m/s
320 K, 90167 kPa | 1388.9 ± 0.11 m/s
320 K, 100174 kPa | 1434 ± 0.12 m/s
320.01 K, 12612 kPa | 863.87 ± 0.072 m/s
340 K, 2104 kPa | 604.55 ± 0.08 m/s
340 K, 2104.2 kPa | 604.63 ± 0.08 m/s
340 K, 3104.8 kPa | 625.77 ± 0.078 m/s
340 K, 4105.5 kPa | 645.52 ± 0.076 m/s
340 K, 5106 kPa | 664.1 ± 0.074 m/s
340 K, 5106.2 kPa | 664.04 ± 0.074 m/s
340 K, 6106.7 kPa | 681.52 ± 0.072 m/s
340 K, 7107.5 kPa | 698.12 ± 0.072 m/s
340 K, 8108.3 kPa | 713.94 ± 0.071 m/s
340 K, 9109.1 kPa | 729.07 ± 0.07 m/s
340 K, 10109 kPa | 743.63 ± 0.07 m/s
340 K, 10110 kPa | 743.59 ± 0.07 m/s
340 K, 12612 kPa | 777.6 ± 0.07 m/s
340 K, 15113 kPa | 808.91 ± 0.07 m/s
340 K, 17616 kPa | 838.02 ± 0.07 m/s
340 K, 20118 kPa | 865.3 ± 0.07 m/s
340 K, 25121 kPa | 915.43 ± 0.072 m/s
340 K, 30123 kPa | 960.88 ± 0.074 m/s
340 K, 30125 kPa | 960.87 ± 0.074 m/s
340 K, 35128 kPa | 1002.6 ± 0.07 m/s
340 K, 40130 kPa | 1041.4 ± 0.08 m/s
340 K, 40132 kPa | 1041.4 ± 0.08 m/s
340 K, 45135 kPa | 1077.7 ± 0.08 m/s
340 K, 50140 kPa | 1112 ± 0.08 m/s
340 K, 60147 kPa | 1175.2 ± 0.09 m/s
340 K, 70154 kPa | 1232.9 ± 0.09 m/s
340 K, 80159 kPa | 1286 ± 0.1 m/s
340 K, 90166 kPa | 1335.6 ± 0.11 m/s
340 K, 100173 kPa | 1382.1 ± 0.11 m/s
360 K, 2104.4 kPa | 480.04 ± 0.09 m/s
360 K, 3105.2 kPa | 509.76 ± 0.084 m/s
360 K, 4105.9 kPa | 536.09 ± 0.08 m/s
360 K, 5104.5 kPa | 559.92 ± 0.076 m/s
360 K, 5104.9 kPa | 559.91 ± 0.076 m/s
360 K, 6107.2 kPa | 581.76 ± 0.073 m/s
360 K, 7108 kPa | 602.06 ± 0.072 m/s
360 K, 8109.7 kPa | 621.09 ± 0.07 m/s
360 K, 9110.4 kPa | 639 ± 0.069 m/s
360 K, 10108 kPa | 655.98 ± 0.069 m/s
360 K, 10111 kPa | 655.99 ± 0.069 m/s
360 K, 12613 kPa | 695.08 ± 0.068 m/s
360 K, 15114 kPa | 730.38 ± 0.067 m/s
360 K, 17616 kPa | 762.73 ± 0.067 m/s
360 K, 20118 kPa | 792.71 ± 0.068 m/s
360 K, 25121 kPa | 847.15 ± 0.069 m/s
360 K, 30125 kPa | 895.9 ± 0.071 m/s
360 K, 35128 kPa | 940.3 ± 0.073 m/s
